Target: T1, full length active recombinant SYK enzyme (Homo sapiens, UniProt P43405)
T1 construct: full length active recombinant SYK enzyme (Millipore, Calif.); purchased Millipore
Assay: Inhibition of Syk tyrosine phosphorylation activity (LANCE TR-FRET kinase assay)
Format: biochemical

SMILES	IC50 [nM]
NC(=O)c1cc(F)c(NC[C@@H](N)CC(F)F)nc1Nc1cncc(F)c1 [Example 382, (S)-6-(2-amino-4,4-difluorobutylamino)-5-fluoro-2-(5-fluoropyridin-3-ylamino)nicotinamide]	100 to 1000
Cc1cccc(Nc2nc(N[C@@H]3CCOC[C@@H]3N)c(F)cc2C(N)=O)c1 [Example 385, 6-((3R,4R)-3-aminotetrahydro-2H-pyran-4-ylamino)-5-fluoro-2-(m-tolylamino)nicotinamide]	1 to 10
NC(=O)c1cc(F)c(N[C@@H]2CCOC[C@@H]2N)nc1Nc1cccc(Cl)c1 [Example 386, 6-((3R,4R)-3-aminotetrahydro-2H-pyran-4-ylamino)-2-(3-chlorophenylamino)-5-fluoronicotinamide]	1 to 10
Cn1ncc2c(Nc3nc(N[C@@H]4CCCC(F)(F)[C@@H]4N)c(F)cc3C(N)=O)cccc21 [Example 387, 6-((1R,2R)-2-amino-3,3-difluorocyclohexylamino)-5-fluoro-2-(1-methyl-1H-indazol-4-ylamino)nicotinamide]	100 to 1000
NC(=O)c1cc(F)c(N[C@H]2[C@@H](N)CCCC2(F)F)nc1Nc1cccc(Cl)c1 [Example 388, 6-((1S,6S)-6-amino-2,2-difluorocyclohexylamino)-2-(3-chlorophenylamino)-5-fluoronicotinamide]	1 to 10
Cn1ncc2c(Nc3nc(N[C@H]4[C@@H](N)CCCC4(F)F)c(F)cc3C(N)=O)cccc21 [Example 389, 6-((1S,6S)-6-amino-2,2-difluorocyclohexylamino)-5-fluoro-2-(1-methyl-1H-indazol-4-ylamino)nicotinamide]	1 to 10
CCn1ccc2c(Nc3nc(N[C@@H]4CCCC(F)(F)[C@@H]4N)c(F)cc3C(N)=O)cccc21 [Example 390, 6-((1R,2R)-2-amino-3,3-difluorocyclohexylamino)-2-(1-ethyl-1H-indol-4-ylamino)-5-fluoronicotinamide]	10 to 100
CC(C)n1ccc2c(Nc3nc(N[C@@H]4CCCC(F)(F)[C@@H]4N)c(F)cc3C(N)=O)cccc21 [Example 391, 6-((1R,2R)-2-amino-3,3-difluorocyclohexylamino)-5-fluoro-2-(1-isopropyl-1H-indol-4-ylamino)nicotinamide]	10 to 100
CC(C)Cn1ccc2c(Nc3nc(N[C@@H]4CCCC(F)(F)[C@@H]4N)c(F)cc3C(N)=O)cccc21 [Example 392, 6-((1R,2R)-2-amino-3,3-difluorocyclohexylamino)-5-fluoro-2-(1-isobutyl-1H-indol-4-ylamino)nicotinamide]	100 to 1000
NC(=O)c1cc(F)c(N[C@@H]2CCCC[C@@H]2N)nc1Nc1csc2ncccc12 [Example 393]	1 to 10
NC(=O)c1cc(F)c(N[C@@H]2CCCC[C@@H]2N)nc1Nc1csc2ccncc12 [Example 394, 6-((1R,2S)-2-aminocyclohexylamino)-5-fluoro-2-(thieno[3,2-c]pyridin-3-ylamino)nicotinamide]	10 to 100
CN1C(=O)Cc2c(Nc3nc(N[C@@H]4CCCC(F)(F)[C@@H]4N)c(F)cc3C(N)=O)cccc21 [Example 395, 6-((1R,2R)-2-amino-3,3-difluorocyclohexylamino)-5-fluoro-2-(1-methyl-2-oxoindolin-4-ylamino)nicotinamide]	> 1000
NC(=O)c1cc(F)c(N[C@@H]2CCCC(F)(F)[C@@H]2N)nc1Nc1csc2ncccc12 [Example 405, 6-((1R,2R)-2-amino-3,3-difluorocyclohexylamino)-5-fluoro-2-(thieno[2,3-b]pyridin-3-ylamino)nicotinamide]	10 to 100
NC(=O)c1cc(F)c(N[C@@H]2CCCC[C@@H]2N)nc1Nc1cc(F)c[n+]([O-])c1 [Example 408, 3-(6-((1R,2S)-2-aminocyclohexylamino)-3-carbamoyl-5-fluoropyridin-2-ylamino)-5-fluoropyridine 1-oxide]	100 to 1000
NC(=O)c1cc(F)c(N[C@@H]2CCCC(F)(F)[C@@H]2N)nc1Nc1cnn2ccccc12 [Example 420, 6-((1R,2R)-2-amino-3,3-difluorocyclohexylamino)-5-fluoro-2-(pyrazolo[1,5-a]pyridin-3-ylamino)nicotinamide]	10 to 100
NC(=O)c1cnc(N[C@@H]2CCCC[C@@H]2N)cc1Nc1cnn2ccccc12 [Example 421, 6-((1R,2S)-2-aminocyclohexylamino)-4-(pyrazolo[1,5-a]pyridin-3-ylamino)nicotinamide]	> 1000
CC[C@@H](Nc1nc(Nc2csc3ncccc23)c(C(N)=O)cc1F)C(N)=O [Example 423, (R)-6-(1-amino-1-oxobutan-2-ylamino)-5-fluoro-2-(thieno[2,3-b]pyridin-3-ylamino)nicotinamide]	10 to 100
CC[C@@H](Nc1nc(Nc2cnn3ccccc23)c(C(N)=O)cc1F)C(N)=O [Example 424, (R)-6-(1-amino-1-oxobutan-2-ylamino)-5-fluoro-2-(pyrazolo[1,5-a]pyridin-3-ylamino)nicotinamide]	10 to 100
CC[C@@H](Nc1ccc(C(N)=O)c(Nc2csc3ncccc23)n1)C(N)=O [Example 425, (R)-6-(1-amino-1-oxobutan-2-ylamino)-2-(thieno[2,3-b]pyridin-3-ylamino)nicotinamide]	10 to 100

Other lines, results leading:

IC50 [nM]	SMILES
> 1000	NC(=O)c1ccc(N[C@@H]2CCNC2)nc1Nc1ccc2ncccc2c1 [Example 383, (R)-6-(pyrrolidin-3-ylamino)-2-(quinolin-6-ylamino)nicotinamide]
1 to 10	NC(=O)c1cc(F)c(N[C@@H]2CCOC[C@@H]2N)nc1Nc1ccc2ncsc2c1 [Example 384, 6-((3R,4R)-3-aminotetrahydro-2H-pyran-4-ylamino)-2-(benzo[d]thiazol-6-ylamino)-5-fluoronicotinamide]
1 to 10	Cn1ccc2c(Nc3nc(N[C@@H]4CCCC[C@@H]4N)ccc3C(N)=O)cccc21 [Example 396, 6-((1R,2S)-2-aminocyclohexylamino)-2-(1-methyl-1H-indol-4-ylamino)nicotinamide]
1 to 10	Cn1ccc2cc(Nc3nc(N[C@@H]4CCCC[C@@H]4N)ccc3C(N)=O)ccc21 [Example 397, 6-((1R,2S)-2-aminocyclohexylamino)-2-(1-methyl-1H-indol-5-ylamino)nicotinamide]
1 to 10	Cn1ncc2c(Nc3nc(N[C@@H]4CCCC[C@@H]4N)ccc3C(N)=O)cccc21 [Example 398, 6-((1R,2S)-2-aminocyclohexylamino)-2-(1-methyl-1H-indazol-4-ylamino)nicotinamide]
1 to 10	Cn1ncc2cc(Nc3nc(N[C@@H]4CCCC[C@@H]4N)ccc3C(N)=O)ccc21 [Example 399, 6-((1R,2S)-2-aminocyclohexylamino)-2-(1-methyl-1H-indazol-5-ylamino)nicotinamide]
1 to 10	NC(=O)c1ccc(N[C@@H]2CCCC[C@@H]2N)nc1Nc1ccc2scnc2c1 [Example 400, 6-((1R,2S)-2-aminocyclohexylamino)-2-(benzo[d]thiazol-5-ylamino)nicotinamide]
1 to 10	NC(=O)c1ccc(N[C@@H]2CCCC[C@@H]2N)nc1Nc1cccc2ncsc12 [Example 401, 6-((1R,2S)-2-aminocyclohexylamino)-2-(benzo[d]thiazol-7-ylamino)nicotinamide]
< 1	NC(=O)c1ccc(N[C@@H]2CCCC[C@@H]2N)nc1Nc1csc2ncccc12 [Example 402, 6-((1R,2S)-2-aminocyclohexylamino)-2-(thieno[2,3-b]pyridin-3-ylamino)nicotinamide]
1 to 10	NC(=O)c1ccc(N[C@@H]2CCCC[C@@H]2N)nc1Nc1ccc2ncsc2c1 [Example 403, 6-((1R,2S)-2-aminocyclohexylamino)-2-(benzo[d]thiazol-6-ylamino)nicotinamide]
1 to 10	NC(=O)c1ccc(N[C@@H]2CCCC[C@@H]2N)nc1Nc1ccc2nc(O)sc2c1 [Example 404, 6-((1R,2S)-2-aminocyclohexylamino)-2-(2-hydroxybenzo[d]thiazol-6-ylamino)nicotinamide]
10 to 100	NC(=O)c1ccc(N[C@@H]2CCCC[C@@H]2N)nc1Nc1cnc2ccncc2c1 [Example 406, 2-(1,6-naphthyridin-3-ylamino)-6-((1R,2S)-2-aminocyclohexylamino)nicotinamide]
10 to 100	NC(=O)c1ccc(N[C@@H]2CCCC[C@@H]2N)nc1Nc1cnc2cc[nH]c2c1 [Example 407]
1 to 10	NC(=O)c1ccc(N[C@@H]2CCCC[C@@H]2N)nc1Nc1cnn2ccccc12 [Example 419, 6-((1R,2S)-2-aminocyclohexylamino)-2-(pyrazolo[1,5-a]pyridin-3-ylamino)nicotinamide]
> 1000	NC(=O)c1cnc(N[C@@H]2CCCC[C@@H]2N)cc1Nc1csc2ncccc12 [Example 422]
